Patent US9650338B1 (priority 2016, dated 2017)

How the values were obtained:
[1] = target: opiate receptor sites in the CNS; assay: Competitive binding to opiate receptor sites in the CNS, rat brain, 3H-Naloxone
[2] = tested on: respiratory depression caused by LD50 of Promedol (Trimeperidine); assay: Antagonism of respiratory depression caused by LD50 of Promedol; details: rat, Promedol (Trimeperidine) 70 mg/kg (LD50)
[3] = tested on: analgesic effects of the ED99 of morphine; assay: Antagonism of the analgesic effect of the ED99 of morphine, mechanical irritation of the tail; details: rat, under skin injection, morphine 5 mg/kg (ED99)
[4] = target: opiate receptor sites in the CNS; assay: Competitive binding to opiate receptor sites in the CNS, mouse brain; details: Brain of the mouse (Table 5, mean; spread in a separate column)

SMILES	IC50 ([1]; Brain of the rate (Table 5, mean; spread in a separate column), read-out: IC50)	IC50 ([1]; brain of the rat, 3H-Naloxone (Table 4), read-out: Affinity IC50)	Median Antagonistic activity AD50 (parenthetical is range) [2]	Median Antagonistic activity AD50 (parenthetical is range) [3]	IC50 [4]
CCC(=O)NC1CC(C)N(CCc2ccccc2)CC1C (stereo not shown) [N-[2,5-dimethyl-1-(2-phenylethyl)piperidin-4-yl]propanamide]	0.12 nM	0.12 nM	5.1 (3.4-7.8) mg/kg	1.2 (0.8-1.64) mg/kg	0.1 nM
C=CCN1CC[C@]23c4c5ccc(O)c4O[C@H]2C(=O)CC[C@@]3(O)[C@H]1C5 [naloxone, 17-allyl-4,5a-epoxy-3,14-dihydroxymorphinan-6-one, reference compound]			1.8 (1.1-3.2) mg/kg	0.3 (0.22-0.39) mg/kg	
